In paper PMC3226889 (Biochemistry, 2011):

Assays:
APE1 redox activity = conditions: cell-based studies; ref [15], [17], [21], [23], [48]; cited from earlier work
APE1^ΔN38 = APE1^ΔN38 (Homo sapiens, UniProt P27695); assay: NMR chemical shift perturbation titration; type: binding
p50 (NF-kB subunit) = p50 (NF-kB subunit) (human, UniProt P19838 42-367); assay: EMSA
Chain of p50 (NF-kB subunit) (P19838 42-367): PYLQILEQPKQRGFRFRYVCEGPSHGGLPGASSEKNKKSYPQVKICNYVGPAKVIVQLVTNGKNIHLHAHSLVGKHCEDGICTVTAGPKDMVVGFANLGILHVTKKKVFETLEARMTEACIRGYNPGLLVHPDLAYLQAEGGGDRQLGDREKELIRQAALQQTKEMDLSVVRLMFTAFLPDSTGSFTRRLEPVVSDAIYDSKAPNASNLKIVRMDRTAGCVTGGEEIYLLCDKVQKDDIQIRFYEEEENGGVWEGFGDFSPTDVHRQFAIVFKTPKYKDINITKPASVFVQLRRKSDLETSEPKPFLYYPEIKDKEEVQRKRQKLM

Chain of APE1^ΔN38 (P27695 39-318): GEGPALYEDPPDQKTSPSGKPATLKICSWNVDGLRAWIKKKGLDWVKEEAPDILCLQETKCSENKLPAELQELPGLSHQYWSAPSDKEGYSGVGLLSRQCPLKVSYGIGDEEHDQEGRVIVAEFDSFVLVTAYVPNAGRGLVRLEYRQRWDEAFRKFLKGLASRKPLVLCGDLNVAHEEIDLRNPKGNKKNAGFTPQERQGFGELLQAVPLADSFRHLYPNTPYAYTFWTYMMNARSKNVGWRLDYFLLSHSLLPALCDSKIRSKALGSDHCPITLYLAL

CCCCCCCCC/C(=C\C1=C(C)C(=O)C(OC)=C(OC)C1=O)C(=O)O [E3330, (E)-3-[2-(5,6-dimethoxy-3-methyl-1,4-benzoquinonyl)]-2-nonylpropenoic acid]
E3330 concentrations at which observed effects occur (APE1 redox activity): 5 to 50 µM

C/C(=C\C1=C(Cl)C(=O)c2ccccc2C1=O)C(=O)O [RN7-60, (E)-3-(3-chloro-1,4-naphthoquinon-2-yl)-2-methylpropenoic acid]
Kd (APE1^ΔN38): 264 ± 72 µM
covalent modification of Cys residues (APE1^ΔN38; NMR conditions including 0.5 mM DTT): no evidence for covalent modification of any Cys residue
fold tighter affinity of RN7-60 than E3330 (APE1^ΔN38; similar conditions): about 2 fold

B1: p50 DNA (dsDNA)
DNA 1: AAGGGACTTTCCGCTGGGGATTCCAT
DNA 2: ATGGAATCCCCAGCGGAAAGTCCCTT
modifications: 3'-terminal T of strand 1 is fluorescein-dT (printed as Y)
binding result (p50 (NF-kB subunit)): binds
